{
  "source": "patent US20250136617A1",
  "about": "(The Regents of the University of Colorado, A Body Corporate, priority 2022, published 2025)",
  "key": {"[1]": {"target": "T1, CXCR4 (Homo sapiens, UniProt P61073)", "T1 sequence (P61073 whole entry)": "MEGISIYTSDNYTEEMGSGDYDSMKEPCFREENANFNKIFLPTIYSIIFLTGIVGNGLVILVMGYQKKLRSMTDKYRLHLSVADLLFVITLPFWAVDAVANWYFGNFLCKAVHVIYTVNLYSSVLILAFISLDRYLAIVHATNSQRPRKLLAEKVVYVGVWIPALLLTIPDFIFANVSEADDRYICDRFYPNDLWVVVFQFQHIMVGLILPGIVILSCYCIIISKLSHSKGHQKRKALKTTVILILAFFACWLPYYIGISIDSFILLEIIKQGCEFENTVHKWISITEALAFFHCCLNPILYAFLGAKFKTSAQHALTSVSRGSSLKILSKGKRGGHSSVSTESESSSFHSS", "experiment": "Tag-Lite CXCR4 binding assay (displacement of fluorescent SDF-1α)", "protocol": "Binding activity was measured using the Cisbio Tag-Lite Chemokine CXCR4 system (CisBio, Bedford, MA). […] Following three-hour incubation, HTRF measurements were taken using the BMG LABTECH CLARIOstar Plus (BMG LABTECH Inc., Cary, NC) with emission signals set to the Cisbio Tag-Lite Binding Assay supplier guidelines. HTRF ratio calculations completed according to supplier guidelines."}, "[2]": {"target": "T1, CXCR4", "experiment": "Adenylate cyclase (cAMP inhibition) assay, thiadiazine scaffold, CHO-CXCR4-cAMP cells", "type": "cell-based", "set-up": "host or cells: CHO-K1", "protocol": "Tango™ CXCR4-bla U2OS Cells (Invitrogen; K1779) were used for (β-arrestin recruitment assays and maintained as a monolayer culture in McCoy's 5a (Corning; 10-050-CV) supplemented with 10% dialyzed Fetal Bovine Serum (Gibco; 26400-044), 0.1 mM MEM Non-essential amino acids solution, 25 mM HEPES solution (Corning; 25-060-CI), 1 mM Sodium Pyruvate (Gibco; 11360-070), 200 μg/mL Zeocin selection reagent (Gibco; R25001), 50 μg/mL Hygromycin B (Gibco, 10687010), and 100 μg/mL Geneticin (G418 Sulfate) (Gibco, 10131035). U2OS cells were subcultured twice weekly by 0.05% Trypsin-EDTA treatment (Corning; 25-051-CI) and passaged to continue exponential growth phase for cell signaling assays. All cell cultures were maintained in cell culture incubators at 37° C. with 5% CO2. CHO-K1 CXCR4 cells (DiscoverX, Fremont, CA, USA) were used for cAMP inhibition assays and maintained as a monolayer culture in DMEM/F12 (Corning; 10-091-CV) supplemented with 10% Fetal Bovine Serum (Corning; 35-011-CV) and 100IU penicillin, […] streptomycin sulfate (Corning; 30-002-CI) and […] G418 (Gibco; 101310350. Cells were subculture 2 times weekly by o.o5% Trypsin-EDTA treatment (Corning; 25-051-CI) and passaged to continue exponential growth phase for cell signaling assays. All cell cultures were maintained in cell culture incubators at 37° C. with 5% CO2.CEM-CCRF cells (ATCC CCL-119) were used in both the migration and calcium flux assays and were cultured in growth media consisting of RPMI 1640 (Corning; 10-040-CV) supplemented with 10% Fetal Bovine Serum (Corning; 35-011-CV), and 100 IU penicillin, […] streptomycin sulfate (Corning; 30-002-CI). […] Cells were harvested for use in migration and calcium flux assays at 2.0×10^6 cells/mL to 2.5×10^6 cells/mL and resuspended in assay media to desired density for respective experiments.\nCompounds and DMSO normalization to 0.5% were dispensed using the TECAN D300e digital dispenser into the wells of a 384-well white wall clear-bottom assay plate (Griener 781983). […] This cell suspension was dispensed at 20 μL per well into the assay plate and allowed to incubate overnight for approximately 18 hrs with compounds in cell culture incubator at 37° C. with 5% CO2. Following incubation, DMEM/F12 media was gently removed, then the Lance Ultra cAMP Kit (Perkin Elmer; TRF0263) was performed according to the supplier guidelines. […] Time-resolved fluorescence was measured on the BMG LABTECH CLARIOstar Plus (BMG LABTECH Inc., Cary, NC) using the Lance Ultra cAMP kit guidelines for excitation and emission. […]"}, "[3]": {"tested_on": "CEM-CCRF human lymphoblast cells", "experiment": "Transwell migration assay in CEM-CCRF lymphoblasts", "type": "cell-based", "outline": "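CEM-CCRF cells at 5.0×10^5 cells/mL in RPMI 1640, preincubated 1 h at 37 °C, 5% CO2, then allowed to migrate in a 96-well transwell system for 3 h at 37 °C. Migrated cells in the receiver tray quantified by ATPLite luminescence.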"}, "[4]": {"target": "T1, CXCR4", "experiment": "cAMP signaling assay, oxazole scaffold (forskolin-induced adenylate cyclase, CHO-K1 CXCR4 cells)", "type": "cell-based", "set-up": "host or cells: CHO-K1", "protocol": "The CXCR4 receptor is a G-protein coupled receptor (GPCR) coupled to the Gi class, whose primary role is inhibition of adenylate cyclase. The ability of UCUF-728 to induce Gi-mediated cAMP-inhibitory cellular response was tested.\nForskolin at final concentration of […] was added to all wells using the TECAN dispenser. […] PathHunter CHO-K1 CXCR4 cells (DiscoverX, Fremont, CA) were added to compounds at 3,000 cells/well, centrifuged at 1000 rpm for 30 sec and incubated for 30 min at room temperature. DMSO (Sigma Aldrich, St. Louis, MO) was normalization to 0.5%. 5 μL of 4× Eu-cAMP tracer working solution was added to all wells followed by addition of 5 μL of 4× Ulight-anti-cAMP working solution to all wells. Plates were centrifuged at 1000 rpm for 1 min and incubated for 1 hr at room temperature then read using CLARIOstar Plus (BMG LABTECH Inc., Cary, NC) Lance CAMP protocol."}},
  "note": "“Also recorded” adds a separate entry of the source. Like-named read-outs stand apart in the source and are kept apart here.",
  "data": [
    {"smiles": "c1cc(CN2CCCNCCNCCCNCC2)ccc1CN1CCCNCCNCCCNCC1", "note": "[AMD3100, reference compound]", "values": [
      {"measurement": "displacement of SDF-1α binding", "setting": "[1]", "result": "dose-dependently displaced SDF-1α; also recorded: dose-dependently displaced SDF-1a saturation binding; also recorded: dose-dependently inhibited SDF-1α saturation binding"},
      {"measurement": "cAMP inhibition activity", "setting": "[2]", "result": "reduces the activity of SDF-1α to inhibit cAMP"},
      {"measurement": "Emax", "setting": "[2]; read-out: SDF-1α Emax reduced to, in the presence of 1 μM AMD3100", "result": 40, "unit": "%"},
      {"measurement": "migration activity (words)", "setting": "[3]", "result": "blocked; also recorded: completely blocks SDF-1α induced migration; also recorded: unable to inhibit UCUF-965-induced migration; also recorded: does not inhibit the migratory response of CEM-CCRF cells induced by UCUF-965"},
      {"measurement": "IC50", "setting": "[3]; Homo sapiens, read-out: logIC50, inhibition of migration (converted)", "result": 31.6, "unit": "nM"},
      {"measurement": "migration activity (words)", "setting": "[3]; listed as AMD 3100", "result": "able to inhibit the migration response induced by SDF-1α"},
      {"measurement": "cAMP signaling / forskolin-induced adenylate cyclase", "setting": "[4]", "result": "dose-dependently blocked; also recorded: dose-dependent inhibition of 40 nM SDF-1α"}
    ]}
  ]
}
